From patent US10398783B2, “Antiproliferative compounds and conjugates made therefrom” (BRISTOL-MYERS SQUIBB COMPANY, priority 2016, dated 2019)

Columns and labels:
Assay type in all cases: cell-based, human
[1] = system: colon cancer (HCT116) cell line; assay: 72 hr ATP luminescence cell proliferation inhibition assay, HCT116
Protocol: (§1) Proliferation inhibition was measured using a 72 hr ATP luminescence assay (Cheng et al., U.S. Pat. No. 8,394,922 B2 (2013)). The antiproliferative effects are reported as IC50's, i.e., the concentration of compound that produces a 50% inhibitory effect on cell proliferation.

[2] = system: mesothelioma (H226) cancer cell line; assay: 72 hr ATP luminescence cell proliferation inhibition assay, H226
Protocol: as §1

[3] = system: gastric (stomach) cancer (N87) cell line; assay: 72 hr ATP luminescence cell proliferation inhibition assay, N87; details: N87 cells
Protocol: as §1

[4] = system: ovarian cancer (OVCAR3) cell line; assay: 72 hr ATP luminescence cell proliferation inhibition assay, OVCAR3
Protocol: as §1

Structure (SMILES)	IC50 ([1]; HCT116 cells) [nM]	IC50 ([2]; H226 cells) [nM]	IC50 [3] [nM]	IC50 ([4]; OVCAR3 cells) [nM]	IC50 ([1]; Homo sapiens, HCT-116, HCT116 cells) [nM]	IC50 ([2]; Homo sapiens, NCI-H226, H226 cells) [nM]	IC50 ([3]; Homo sapiens) [nM]	IC50 ([4]; Homo sapiens, OVCAR-3, OVCAR3 cells) [nM]
COc1cc2c(cc1OCCCC(=O)Nc1cc(C(=O)Nc3ccc4c(c3)-n3cnnc3CO4)n(C)c1)N=C[C@@H]1Cc3ccccc3CN1C2=O [(Ib-32)]	0.3	3.1	0.41	1.6				
COc1cc2c(cc1OCCCC(=O)Nc1cc(C(=O)Nc3cccc(OCc4ccccc4)n3)n(C)c1)N=C[C@@H]1Cc3ccccc3CN1C2=O [(Ib-36)]	3.7	22	3.7	2.2				
COc1cc2c(cc1OCCCC(=O)Nc1cc(C(=O)Nc3cnc4c(c3)ncn4C)n(C)c1)N=C[C@@H]1Cc3ccccc3CN1C2=O [(Ib-37)]	1.7	1.2	1.6	5.2				
COC(=O)c1cc(NC(=O)CCCOc2cc3c(cc2OC)C(=O)N2Cc4ccccc4C[C@H]2C=N3)cn1C [(Ib-38)]	1.1	1.1	1.1	0.66				
COc1cc2c(cc1OCCCC(=O)Nc1cc(C(=O)NC3CC3)n(C)c1)N=C[C@@H]1Cc3ccccc3CN1C2=O [(Ib-42)]	0.38	0.49	0.39	0.32				
COc1cc2c(cc1OCCCC(=O)Nc1cc(C(=O)Nc3cccnc3)n(C)c1)N=C[C@@H]1Cc3ccccc3CN1C2=O [(Ib-46)]	0.13	0.27	0.12	0.55				
COc1cc2c(cc1OCCCC(=O)Nc1cn(C)c(C(=O)Nc3ccccc3)n1)N=C[C@@H]1Cc3ccccc3CN1C2=O [(Ib-48)]	0.039	0.18	0.075	0.094				
COc1cc2c(cc1OCCCC(=O)Nc1cc(C(=O)Nc3ccc(-c4cc(-c5ncco5)n(C)c4)cc3)n(C)c1)N=C[C@@H]1Cc3ccccc3CN1C2=O [(Ib-49)]	0.051	0.062	0.16	0.32				
COc1cc2c(cc1OCCCC(=O)Nc1cc(C(=O)Nc3ccc(N)cc3)n(C)c1)N=C[C@@H]1Cc3ccccc3CN1C2=O [(Ib-52)]	0.28	0.3	0.45	0.63				
COc1cc(-c2ccc(NC(=O)c3cc(NC(=O)CCCOc4cc5c(cc4OC)C(=O)N4Cc6ccccc6C[C@H]4C=N5)cn3C)c(OC)c2)ccc1N [(Ib-53)]	0.098	0.13	0.092	0.22				
COc1cc2c(cc1OCCCC(=O)Nc1cc(C(=O)Nc3ccc(-c4ccc(N)cc4)cc3)n(C)c1)N=C[C@@H]1Cc3ccccc3CN1C2=O [(Ib-54)]					0.007	0.05	0.027	0.071

Now from value to compound, other results behind:

IC50 ([1]; HCT116 cells) [nM]	IC50 ([2]; H226 cells) [nM]	IC50 [3] [nM]	IC50 ([4]; OVCAR3 cells) [nM]	Structure (SMILES)	IC50 ([1]; Homo sapiens, HCT-116, HCT116 cells) [nM]	IC50 ([2]; Homo sapiens, NCI-H226, H226 cells) [nM]	IC50 ([3]; Homo sapiens) [nM]	IC50 ([4]; Homo sapiens, OVCAR-3, OVCAR3 cells) [nM]
0.078	0.28	0.23	0.94	COc1cc2c(cc1OCCCC(=O)Nc1cc(C(=O)Nc3ccc4c(c3)OCc3nncn3-4)n(C)c1)N=C[C@@H]1Cc3ccccc3CN1C2=O [(Ib-31)]				
< 0.004	< 0.004	< 0.004	0.052	COc1cc2c(cc1OCCCC(=O)Nc1cc(C(=O)Nc3ccc4c(c3)oc3ccccc34)n(C)c1)N=C[C@@H]1Cc3ccccc3CN1C2=O [(Ib-33)]				
< 0.004	< 0.004	0.006	0.025	COc1cc2c(cc1OCCCC(=O)Nc1cc(C(=O)Nc3ccc4c(c3)Cc3cc(N)ccc3-4)n(C)c1)N=C[C@@H]1Cc3ccccc3CN1C2=O [(Ib-34)]				
0.047	< 0.004	< 0.004	0.11	COc1ccc(NC(=O)c2cc(NC(=O)CCCOc3cc4c(cc3OC)C(=O)N3Cc5ccccc5C[C@H]3C=N4)cn2C)nc1 [(Ib-35)]				
0.003	0.006	0.002	0.011	COC(=O)c1cc(-c2ccc(NC(=O)c3cc(NC(=O)CCCOc4cc5c(cc4OC)C(=O)N4Cc6ccccc6C[C@H]4C=N5)cn3C)cc2)cn1C [(Ib-39)]				
0.028	0.1	0.09	0.16	COC(=O)c1cc(NC(=O)c2cc(NC(=O)CCCOc3cc4c(cc3OC)C(=O)N3Cc5ccccc5C[C@H]3C=N4)cn2C)cn1C [(Ib-40)]				
0.022	0.083	0.038	0.053	COc1cc2c(cc1OCCCC(=O)Nc1cc(C(=O)Nc3ccccc3)n(C)c1)N=C[C@@H]1Cc3ccccc3CN1C2=O [(Ib-41)]				
0.008	0.013	0.026	0.025	COc1cc2c(cc1OCCCC(=O)Nc1cc(C(=O)Nc3ccc(-c4ccccc4)cc3)n(C)c1)N=C[C@@H]1Cc3ccccc3CN1C2=O [(Ib-43)]				
0.045	0.085	0.055	0.053	COc1cc2c(cc1OCCCC(=O)Nc1cc(C(=O)Nc3ccccn3)n(C)c1)N=C[C@@H]1Cc3ccccc3CN1C2=O [(Ib-44)]				
0.032	0.085	0.025	0.01	COc1cc2c(cc1OCCCC(=O)Nc1cc(C(=O)Nc3ccc(Cl)cn3)n(C)c1)N=C[C@@H]1Cc3ccccc3CN1C2=O [(Ib-45)]				
0.019	0.13	0.022	0.13	COc1cc2c(cc1OCCCC(=O)Nc1cc(C(=O)Nc3ccc(Cl)nc3)n(C)c1)N=C[C@@H]1Cc3ccccc3CN1C2=O [(Ib-47)]				
0.022	0.11	0.037	0.7	COc1cc2c(cc1OCCCC(=O)Nc1cc(C(=O)Nc3ccc(OCc4ccccc4)cc3)n(C)c1)N=C[C@@H]1Cc3ccccc3CN1C2=O [(Ib-51)]				
0.004	0.018	< 0.004	0.045	COC(=O)c1cc(-c2ccc(NC(=O)c3nc(NC(=O)CCCOc4cc5c(cc4OC)C(=O)N4Cc6ccccc6C[C@H]4C=N5)cn3C)cc2)cn1C [(Ib-55)]				
